Assay results as given in ChEMBL document CHEMBL4024706 (Eur J Med Chem, 2017).

Columns and labels:
[1] = target: Tyrosine-protein kinase JAK1 (Homo sapiens) (UniProt P23458); experiment: Inhibition of wild-type human partial length JAK1 JH1 catalytic domain (V856 to K1154 residues) expressed in bacterial expression system assessed as residual activity at 1 uM by Kinomescan method relative to control
[2] = target: T1, Epidermal growth factor receptor (Homo sapiens, UniProt P00533); experiment: Inhibition of wild-type human partial length EGFR (R669 to V1011 residues) expressed in bacterial expression system assessed as residual activity at 1 uM by Kinomescan method relative to control
T1 sequence (P00533 whole entry, the tested form may be a part, canonical isoform): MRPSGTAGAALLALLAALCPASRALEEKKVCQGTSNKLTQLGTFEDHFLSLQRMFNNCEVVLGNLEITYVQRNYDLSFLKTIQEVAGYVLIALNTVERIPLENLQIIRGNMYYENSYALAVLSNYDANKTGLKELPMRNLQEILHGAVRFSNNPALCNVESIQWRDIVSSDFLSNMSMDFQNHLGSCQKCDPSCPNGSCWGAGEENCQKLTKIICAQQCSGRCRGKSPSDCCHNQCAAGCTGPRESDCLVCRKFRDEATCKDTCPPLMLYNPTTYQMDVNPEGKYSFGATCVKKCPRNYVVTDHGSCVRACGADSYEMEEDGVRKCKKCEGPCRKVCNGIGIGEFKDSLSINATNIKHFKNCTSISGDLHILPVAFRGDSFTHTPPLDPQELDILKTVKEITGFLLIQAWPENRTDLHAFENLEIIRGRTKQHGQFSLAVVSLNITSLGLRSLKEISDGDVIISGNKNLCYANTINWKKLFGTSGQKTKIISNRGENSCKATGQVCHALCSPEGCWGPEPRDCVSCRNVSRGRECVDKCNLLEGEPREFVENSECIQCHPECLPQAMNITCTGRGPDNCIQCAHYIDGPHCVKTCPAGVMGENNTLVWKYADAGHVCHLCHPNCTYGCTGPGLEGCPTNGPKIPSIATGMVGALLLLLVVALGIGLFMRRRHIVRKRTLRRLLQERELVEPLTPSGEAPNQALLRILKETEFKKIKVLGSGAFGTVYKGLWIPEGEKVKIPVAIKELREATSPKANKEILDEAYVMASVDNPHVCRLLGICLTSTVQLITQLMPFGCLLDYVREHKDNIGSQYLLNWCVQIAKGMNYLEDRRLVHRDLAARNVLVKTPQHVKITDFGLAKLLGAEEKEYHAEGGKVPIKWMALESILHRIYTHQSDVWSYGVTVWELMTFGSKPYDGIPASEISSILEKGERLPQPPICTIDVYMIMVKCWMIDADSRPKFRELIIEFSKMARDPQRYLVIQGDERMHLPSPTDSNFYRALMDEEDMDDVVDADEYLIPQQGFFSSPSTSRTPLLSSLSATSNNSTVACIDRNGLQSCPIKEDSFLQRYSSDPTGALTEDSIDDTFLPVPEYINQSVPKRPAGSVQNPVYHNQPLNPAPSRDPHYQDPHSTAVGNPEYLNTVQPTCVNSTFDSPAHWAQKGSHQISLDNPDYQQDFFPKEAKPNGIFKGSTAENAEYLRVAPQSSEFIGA

[3] = tested on: Phosphatidylinositol 4,5-bisphosphate 3-kinase catalytic subunit alpha isoform (Homo sapiens), P42336 [H1047L]; experiment: Inhibition of human partial length PIK3CA H1047L mutant (R108 to N1068 residues) expressed in mammalian expression system assessed as residual activity at 1 uM by Kinomescan method relative to control
Sequence of Phosphatidylinositol 4,5-bisphosphate 3-kinase catalytic subunit alpha isoform (Homo sapiens), P42336 [H1047L] (P42336 whole entry H1047L, the tested form may be a part, canonical isoform): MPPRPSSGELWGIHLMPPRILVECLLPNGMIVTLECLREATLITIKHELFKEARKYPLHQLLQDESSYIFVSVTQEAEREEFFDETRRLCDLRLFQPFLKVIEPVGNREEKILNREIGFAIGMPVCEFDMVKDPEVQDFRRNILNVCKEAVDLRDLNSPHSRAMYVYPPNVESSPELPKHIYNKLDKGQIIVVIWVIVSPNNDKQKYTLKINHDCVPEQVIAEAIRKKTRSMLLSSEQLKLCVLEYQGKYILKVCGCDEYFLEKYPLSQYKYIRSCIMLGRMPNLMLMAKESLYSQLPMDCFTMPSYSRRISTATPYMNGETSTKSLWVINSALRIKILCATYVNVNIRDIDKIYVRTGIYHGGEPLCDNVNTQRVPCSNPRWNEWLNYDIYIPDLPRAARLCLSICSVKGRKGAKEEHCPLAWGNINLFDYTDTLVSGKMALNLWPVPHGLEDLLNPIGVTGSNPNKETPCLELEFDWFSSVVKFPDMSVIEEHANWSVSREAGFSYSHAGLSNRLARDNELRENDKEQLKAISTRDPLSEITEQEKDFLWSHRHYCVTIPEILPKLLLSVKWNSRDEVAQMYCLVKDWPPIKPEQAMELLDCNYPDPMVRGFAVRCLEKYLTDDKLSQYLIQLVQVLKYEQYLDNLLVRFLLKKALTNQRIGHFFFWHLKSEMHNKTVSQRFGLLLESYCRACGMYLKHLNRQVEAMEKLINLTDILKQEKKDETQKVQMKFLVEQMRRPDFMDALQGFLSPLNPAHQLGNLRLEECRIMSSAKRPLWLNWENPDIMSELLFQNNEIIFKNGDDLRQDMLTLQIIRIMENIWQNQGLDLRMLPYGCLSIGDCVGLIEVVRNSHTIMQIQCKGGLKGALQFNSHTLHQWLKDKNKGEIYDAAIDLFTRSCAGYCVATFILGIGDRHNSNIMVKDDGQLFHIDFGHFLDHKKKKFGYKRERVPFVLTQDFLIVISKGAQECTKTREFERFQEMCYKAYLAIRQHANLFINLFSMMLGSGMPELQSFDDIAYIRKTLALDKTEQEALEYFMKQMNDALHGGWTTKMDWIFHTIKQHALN

[4] = target: Serine/threonine-protein kinase PLK1 (Homo sapiens) (UniProt P53350); experiment: Inhibition of wild-type human partial length PLK1 (A33 to F325 residues) expressed in mammalian expression system assessed as residual activity at 1 uM by Kinomescan method relative to control
[5] = target: Calcium/calmodulin-dependent protein kinase type IV (Homo sapiens) (UniProt Q16566); experiment: Inhibition of wild-type human partial length CAMK4 (A22 to A322 residues) expressed in bacterial expression system assessed as residual activity at 1 uM by Kinomescan method relative to control
Sequence of Calcium/calmodulin-dependent protein kinase type IV (Homo sapiens) (Q16566 whole entry, the tested form may be a part): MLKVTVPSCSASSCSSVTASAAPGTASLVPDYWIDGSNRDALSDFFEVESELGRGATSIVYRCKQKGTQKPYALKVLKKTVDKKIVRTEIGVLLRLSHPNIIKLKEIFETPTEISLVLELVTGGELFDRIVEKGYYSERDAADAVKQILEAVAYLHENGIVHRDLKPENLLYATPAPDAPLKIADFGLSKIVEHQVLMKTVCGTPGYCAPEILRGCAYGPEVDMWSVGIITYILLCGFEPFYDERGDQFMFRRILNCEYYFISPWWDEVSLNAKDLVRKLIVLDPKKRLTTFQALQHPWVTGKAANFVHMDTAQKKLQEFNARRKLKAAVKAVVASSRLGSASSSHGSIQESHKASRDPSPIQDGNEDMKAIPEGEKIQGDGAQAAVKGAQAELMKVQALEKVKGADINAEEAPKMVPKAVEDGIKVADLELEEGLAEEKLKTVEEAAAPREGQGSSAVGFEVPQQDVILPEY

[6] = target: Non-receptor tyrosine-protein kinase TYK2 (Homo sapiens) (UniProt P29597); experiment: Inhibition of wild-type human partial length TYK2 JH1 catalytic domain (V877 to C1187 residues) expressed in mammalian expression system assessed as residual activity at 1 uM by Kinomescan method relative to control
[7] = target: Cyclin-dependent kinase 13 (Homo sapiens) (UniProt Q14004); experiment: Inhibition of wild-type human partial length CDC2L5 (H675 to S1054 residues) expressed in mammalian expression system assessed as residual activity at 1 uM by Kinomescan method relative to control
[8] = target: Serine/threonine-protein kinase Nek7 (Homo sapiens) (UniProt Q8TDX7); experiment: Inhibition of wild-type human full length NEK7 (M1 to S302 residues) expressed in bacterial expression system assessed as residual activity at 1 uM by Kinomescan method relative to control
[9] = target: Rho-associated protein kinase 1 (Homo sapiens) (UniProt Q13464); experiment: Inhibition of wild-type human partial length ROCK1 (M1 to R415 residues) expressed in mammalian expression system assessed as residual activity at 1 uM by Kinomescan method relative to control
[10] = target: Tyrosine-protein kinase receptor UFO (Homo sapiens) (UniProt P30530); experiment: Inhibition of wild-type human partial length AXL (R497 to Y821 residues) expressed in bacterial expression system assessed as residual activity at 1 uM by Kinomescan method relative to control
[11] = target: Ephrin type-B receptor 6 (Homo sapiens) (UniProt O15197); experiment: Inhibition of wild-type human partial length EPHB6 (Q634 to P948 residues) expressed in mammalian expression system assessed as residual activity at 1 uM by Kinomescan method relative to control
[12] = target: Tyrosine-protein kinase BTK (Homo sapiens, UniProt Q06187); experiment: Inhibition of BTK auto-phosphorylation at Y223 in human Pfeiffer cells measured after 4 hrs by chemiluminescent assay
[13] = target: Serine/threonine-protein kinase Nek11 (Homo sapiens) (UniProt Q8NG66); experiment: Inhibition of wild-type human partial length NEK11 (M1 to E313 residues) expressed in mammalian expression system assessed as residual activity at 1 uM by Kinomescan method relative to control
Sequence of Serine/threonine-protein kinase Nek11 (Homo sapiens) (Q8NG66 whole entry, the tested form may be a part): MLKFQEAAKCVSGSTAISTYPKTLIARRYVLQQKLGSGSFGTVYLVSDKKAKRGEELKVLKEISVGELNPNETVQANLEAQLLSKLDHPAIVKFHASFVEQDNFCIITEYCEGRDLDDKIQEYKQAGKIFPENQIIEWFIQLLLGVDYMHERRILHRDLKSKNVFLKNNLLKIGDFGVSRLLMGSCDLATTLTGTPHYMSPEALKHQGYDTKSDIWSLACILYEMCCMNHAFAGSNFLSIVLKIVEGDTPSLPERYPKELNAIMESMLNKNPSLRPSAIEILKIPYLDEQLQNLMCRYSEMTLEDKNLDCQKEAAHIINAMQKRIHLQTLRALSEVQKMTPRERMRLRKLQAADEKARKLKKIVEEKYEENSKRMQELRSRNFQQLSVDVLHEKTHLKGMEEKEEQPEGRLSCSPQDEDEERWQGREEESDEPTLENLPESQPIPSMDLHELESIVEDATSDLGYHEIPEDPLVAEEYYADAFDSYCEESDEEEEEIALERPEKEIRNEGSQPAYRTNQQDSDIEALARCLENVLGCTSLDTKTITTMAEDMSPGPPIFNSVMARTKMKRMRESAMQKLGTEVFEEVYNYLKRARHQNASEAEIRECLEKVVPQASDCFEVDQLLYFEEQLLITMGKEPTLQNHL

[14] = Cmax in Sprague-Dawley rat at 1 mg/kg, iv by LC-MS/MS method; type: ADME, organism-based; design: dose 1 mg/kg, route intravenous; conditions: in vivo
U2932 = experiment: Growth inhibition of human U2932 cells; type: functional; conditions: Homo sapiens, U2932
[15] = target: Serine/threonine-protein kinase pim-3 (Homo sapiens) (UniProt Q86V86); experiment: Inhibition of wild-type human partial length PIM3 (G16 to A317 residues) expressed in bacterial expression system assessed as residual activity at 1 uM by Kinomescan method relative to control
[16] = target: Ephrin type-A receptor 4 (Homo sapiens) (UniProt P54764); experiment: Inhibition of wild-type human partial length EPHA4 (T601 to R897 residues) expressed in bacterial expression system assessed as residual activity at 1 uM by Kinomescan method relative to control
[17] = target: 5'-AMP-activated protein kinase catalytic subunit alpha-1 (Homo sapiens) (UniProt Q13131); experiment: Inhibition of wild-type human partial length AMPK alpha1 (M1 to E306 residues) expressed in bacterial expression system assessed as residual activity at 1 uM by Kinomescan method relative to control
Sequence of 5'-AMP-activated protein kinase catalytic subunit alpha-1 (Homo sapiens) (Q13131 whole entry, looked up, the tested form may be a part): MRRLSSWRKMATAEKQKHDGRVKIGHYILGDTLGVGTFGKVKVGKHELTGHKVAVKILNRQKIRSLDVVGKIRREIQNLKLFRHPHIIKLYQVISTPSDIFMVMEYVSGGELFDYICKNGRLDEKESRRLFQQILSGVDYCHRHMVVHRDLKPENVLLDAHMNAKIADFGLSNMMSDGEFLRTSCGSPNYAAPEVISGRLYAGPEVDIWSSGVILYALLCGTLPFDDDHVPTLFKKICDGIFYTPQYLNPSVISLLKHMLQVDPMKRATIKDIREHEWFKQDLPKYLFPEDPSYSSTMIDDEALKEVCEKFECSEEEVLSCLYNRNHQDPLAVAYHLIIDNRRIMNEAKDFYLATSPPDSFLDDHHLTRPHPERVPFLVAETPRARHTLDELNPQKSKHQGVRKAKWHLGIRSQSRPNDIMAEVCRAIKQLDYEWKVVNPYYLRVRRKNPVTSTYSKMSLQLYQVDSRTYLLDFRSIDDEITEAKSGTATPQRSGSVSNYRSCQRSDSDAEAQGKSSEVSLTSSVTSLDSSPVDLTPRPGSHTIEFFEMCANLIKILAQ

[18] = tested on: ALK tyrosine kinase receptor (Homo sapiens), Q9UM73 [C1156Y]; experiment: Inhibition of […] human partial length ALK C1156Y mutant (I1088 to E1409 residues) expressed in mammalian expression system assessed as residual activity at 1 uM by Kinomescan method relative to control
[19] = target: Serine/threonine-protein kinase PAK 5 (Homo sapiens) (UniProt Q9P286); experiment: Inhibition of wild-type human partial length PAK7 (Y400 to H719 residues) expressed in bacterial expression system assessed as residual activity at 1 uM by Kinomescan method relative to control
[20] = target: Cyclin-dependent kinase 4/cyclin D1 (Homo sapiens) (UniProt P11802+P24385); experiment: Inhibition of wild-type human full length CDK4/cyclinD1 (M1 to E303 residues) expressed in mammalian expression system assessed as residual activity at 1 uM by Kinomescan method relative to control
[21] = target: T1, Epidermal growth factor receptor; experiment: Inhibition of recombinant human N-terminal GST-tagged wild-type EGFR (695 to end residues) expressed in baculovirus infected Sf9 insect cells using poly (Glu,Tyr)4:1 as substrate pretreated for 60 mins followed by substrate addition after 1 hr by ADP-Glo luminescence assay
[22] = target: Mitogen-activated protein kinase 8 (Homo sapiens) (UniProt P45983); experiment: Inhibition of wild-type human full length JNK1 (M1 to Q384 residues) expressed in mammalian expression system assessed as residual activity at 1 uM by Kinomescan method relative to control
Sequence of Mitogen-activated protein kinase 8 (Homo sapiens) (P45983 whole entry, the tested form may be a part): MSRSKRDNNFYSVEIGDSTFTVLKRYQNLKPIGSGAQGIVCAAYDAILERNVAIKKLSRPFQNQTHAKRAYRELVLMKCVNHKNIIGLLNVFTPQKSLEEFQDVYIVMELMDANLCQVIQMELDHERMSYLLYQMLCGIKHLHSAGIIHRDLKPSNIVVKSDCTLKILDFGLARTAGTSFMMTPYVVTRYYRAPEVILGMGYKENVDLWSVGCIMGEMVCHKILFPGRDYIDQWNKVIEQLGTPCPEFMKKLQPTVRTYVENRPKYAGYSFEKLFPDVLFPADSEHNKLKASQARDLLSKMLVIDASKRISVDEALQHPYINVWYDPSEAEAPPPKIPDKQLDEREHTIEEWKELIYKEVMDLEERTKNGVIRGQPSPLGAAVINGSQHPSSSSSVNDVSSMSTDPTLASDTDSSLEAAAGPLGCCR

[23] = target: Myosin light chain kinase 2, skeletal/cardiac muscle (Homo sapiens) (UniProt Q9H1R3); experiment: Inhibition of wild-type human partial length MYLK2 (D258 to K570 residues) expressed in bacterial expression system assessed as residual activity at 1 uM by Kinomescan method relative to control
Sequence of Myosin light chain kinase 2, skeletal/cardiac muscle (Homo sapiens) (Q9H1R3 whole entry, the tested form may be a part): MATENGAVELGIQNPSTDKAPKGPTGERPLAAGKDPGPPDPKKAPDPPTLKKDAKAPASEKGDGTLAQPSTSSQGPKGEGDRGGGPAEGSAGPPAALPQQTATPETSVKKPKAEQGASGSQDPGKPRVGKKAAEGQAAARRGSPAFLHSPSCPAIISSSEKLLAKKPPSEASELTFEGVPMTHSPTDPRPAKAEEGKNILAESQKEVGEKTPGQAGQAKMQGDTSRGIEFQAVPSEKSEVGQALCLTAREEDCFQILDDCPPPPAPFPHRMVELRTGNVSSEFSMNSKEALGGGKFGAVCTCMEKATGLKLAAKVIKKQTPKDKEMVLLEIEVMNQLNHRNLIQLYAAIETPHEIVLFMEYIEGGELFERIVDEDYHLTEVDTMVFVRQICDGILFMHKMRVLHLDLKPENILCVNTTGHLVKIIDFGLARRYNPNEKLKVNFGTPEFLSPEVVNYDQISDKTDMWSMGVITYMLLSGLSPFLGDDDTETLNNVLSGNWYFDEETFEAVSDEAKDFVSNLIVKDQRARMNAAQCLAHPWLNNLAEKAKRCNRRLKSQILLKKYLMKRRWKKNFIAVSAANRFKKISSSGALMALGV

[24] = tested on: Tyrosine-protein kinase ABL1 (Homo sapiens), P00519 [E255K]; experiment: Inhibition of human phosphorylated ABL1 E255K mutant (S229 to K512 residues) expressed in mammalian expression system assessed as residual activity at 1 uM by Kinomescan method relative to control
[25] = target: 5'-AMP-activated protein kinase catalytic subunit alpha-2 (Homo sapiens) (UniProt P54646); experiment: Inhibition of wild-type human partial length AMPK alpha2 (M1 to E306 residues) expressed in bacterial expression system assessed as residual activity at 1 uM by Kinomescan method relative to control

SMILES: C=CC(=O)Nc1cc(Nc2cc(-c3cccc(NC(=O)c4ccc(C(C)(C)C)cc4)c3C)cn(C)c2=O)ccc1C(=O)N1CCOCC1
- Activity [1]: 100%
- Activity [2]: 92%
- Activity [3]: 56%
- Activity [4]: 100%
- Activity [5]: 77%
- Activity [6]: 74%
- Activity [7]: 100%
- Activity [8]: 95%
- Activity [9]: 100%
- Activity [10]: 86%
- Activity [11]: 100%
- EC50 [12]: < 30 nM
- Activity [13]: 97%
- Cmax [14]: 897 ng/mL
- GI50 (U2932): 2400 nM
- Activity [15]: 98%
- Activity [16]: 83%
- Activity [17]: 89%
- Activity [18]: 94%
- Activity [19]: 98%
- Activity [20]: 100%
- IC50 [21]: > 10000 nM
- Activity [22]: 100%
- Activity [23]: 100%
- Activity [24]: 100%
- Activity [25]: 92%
